According to patent US9096832B2, “Differentiation of human embryonic stem cells” (LifeScan, Inc., priority 2007, dated 2015):

Key:
[1] = test system: human embryonic stem cell line H9; assay: FACS of protein markers after activin A treatment, hES cells on mouse embryonic fibroblasts (Table IIA); assay type: cell-based; conditions: for CD9 protein expression / CXCR4 protein expression / ECAM protein expression / NCAM protein expression / SSEA-3 protein expression: H9, FACS
Text: (§1) The level of expression of definitive endoderm markers was examined by PCR (FIG. 1), FACS (results summarized in Table II), and immunohistochemistry (FIG. 2).
(§2) CXCR4 positive cells were also highly positive for C-kit, EPCAM, CD99, and negative for CD9. The expression pattern for these markers was consistent among all three hES cell lines examined (Table IIB for H7 and Table IIC for H1). […] In parallel, almost 100% of the differentiated cells were […] (FIG. 2).
(§3) Adhered cells were removed from culture plates by five-minute incubation with TrypLE™ Express solution (Invitrogen, CA). Released cells were resuspended in human embryonic stem cell culture medium and recovered by centrifugation, followed by washing and resuspending the cells in a staining buffer consisting of 2% BSA, 0.05% sodium azide in PBS (Sigma, MO). As appropriate, the cells were Fc-receptor blocked for 15 minutes using a 0.1% γ-globulin (Sigma) solution. […] Controls included appropriate isotype matched antibodies, unstained cells, and cells stained only with secondary conjugated antibody. All incubations with antibodies were performed for 30 mins at 4° C. after which the cells were washed with the staining buffer. Samples that were stained with unconjugated primary antibodies were incubated for an additional 30 mins at 4° C. with secondary conjugated PE or —APC labeled antibodies. See Table I for a list of secondary antibodies used. Washed cells were pelleted and resuspended in the staining buffer, and the cell surface molecules were identified using a FACS Array (BD Biosciences) instrument, collecting at least 10,000 events.

[2] = test system: human embryonic stem cell line H1; assay: FACS of protein markers after activin A treatment (Table IIC); assay type: cell-based; conditions: 5-day AA treatment
Text: as §1, §2, §3

[3] = test system: human embryonic stem cell line H9; assay: Immunocytochemistry of definitive endoderm markers after activin A treatment; assay type: cell-based; conditions: activin A for five days
Text: as §1
Levels of expression for HNF-3beta, Sox-17, and GATA4 were low in untreated cells, approximately 10 to 20% of all cells.

[4] = test system: human embryonic stem cell line H9; assay: Formation of pancreatic endocrine cells with gamma-secretase inhibitor L-685,458 (PCR); assay type: cell-based; conditions: activin A alone or in combination with retinoic acid and FGFs
Procedure: After this time interval, the cells were then treated for six days with combinations of retinoic acid and FGF as outlined in Example 2, then the culture medium was removed and replaced with medium comprising DMEM/F12 with 2% FBS, containing the γ-secretase inhibitors L-685,458 at 10 μM for three days.
Final data were expressed relative to a calibrator sample.

[5] = test system: human embryonic stem cell line H9; assay: Formation of pancreatic endocrine cells expressing Nkx2.2 (PCR); assay type: cell-based
Procedure: Cells were continuously cultured for another 3 to 5 days in basal medium with retinoic acid at 1 μM, alone or with bFGF. RNA samples were harvested from cells at various time points along this process to help evaluate the directed differentiation of the cells. Furthermore, culture medium and factors were regularly removed and replenished throughout the differentiation protocol.

[6] = test system: H7P44 and H9P46 embryonic stem cells; assay: Definitive endoderm on […]: role of Wnt ligands (FACS CXCR4, real-time PCR); assay type: cell-based, human
Procedure: In some of the cultures 20 ng/ml Wnt-3a (Catalog#1324-WN-002, R&D Systems, MN), 20 ng/ml Wnt-5a (Catalog#654-WN-010, R&D Systems, MN), 25 ng/ml Wnt-7a (Catalog#3008-WN-025, R&D Systems, MN), or 25 ng/ml Wnt-5b (Catalog#3006-WN-025, R&D Systems, MN) was added throughout the five day treatment. FIG. 24 depicts phase contrast images of H9P46 definitive endoderm culture in the presence of high concentration of (a) AA or (b) AA+20 ng/ml Wnt-3a. FIG. 25 depicts the expression of CXCR4 by FACS at day 5 for H7P44, and H9P46 lines cultured on […]™ (1:30 dilution) and exposed to the DE protocol+Wnt-3a (FIG. 25, panels b and d) and −Wnt-3a (FIG. 25, panels a and c).

[7] = test system: H9P46 embryonic stem cells; assay: Definitive endoderm on […]: effective dose of Wnt-3a (FACS, PCR, cell number); assay type: cell-based, human
Procedure: Control cultures were not treated with Wnt-3a. FIG. 27, panel a depicts the expression of CXCR4 by FACS at day 5 in the absence of Wnt-3a, b) 10 ng/ml Wnt-3a, c) 20 ng/ml Wnt-3a and d) 50 ng/ml Wnt-3a. In the absence of Wnt-3a the expression of CXCR4 was very low. […] Real-time PCR results (FIG. 28, panel a) also confirm this finding.
In a separate study, H9p52 cells were plated on 1:30 low growth factor […]™. For the first 2 days of the DE protocol a range of Wnt-3a doses was used: 10 ng/ml, 5 ng/ml and 1 ng/ml. […] The number of cells at the end of the experiment is noted in FIG. 28, panel c.

H9 cells = assay: Immunofluorescence staining of DE markers, activin A +/- Wnt-3a; assay type: cell-based, human
Text: Day 5 DE cultures of H9 cells were stained according to Example 10 for SOX-17, HNF-3B, GATA-4, N-cadherin, and E-cadherin. All nuclei were counter stained with DAPI.

[8] = test system: human embryonic stem cell line H1 at passage 55; assay: Definitive endoderm on human serum coated plates (real-time PCR); assay type: cell-based; conditions: with activin A, vs activin A only
Procedure: Cultures of the human embryonic stem cell line H1 at passage 55 were grown and differentiated on human serum (Sigma, #H1388, MO) coated plates. 0.5 ml of human serum was added to each well of 6 well tissue culture treated dish, incubated for 1 hr at room temperature, and aspirated before adding human embryonic stem cells. […] These findings parallel our findings for human embryonic stem cells cultured on […]™ or human fibronectin coated plates.

Question: For “Activin A: activin A (a member of the TGFβ superfamily), R&D Systems; 'w/o wnt' in Table VII = 100 ng/ml Activin A without Wnt3a”, which “expression of E-cadherin and N-cadherin” value ([1]; FACS, following activin A treatment) is on record?
Answer: The value was “did not change”.

Question: And the CD9 protein expression ([1]; 2-DAY activin A 100 ng/ml)?
Answer: The CD9 protein expression was 29.42%.

Question: What about the CXCR4 protein expression ([1]; 2-DAY activin A 100 ng/ml) of the same substance?
Answer: Its CXCR4 protein expression is 20.2%.

Question: And the ECAM protein expression ([1]; 2-DAY activin A 100 ng/ml)?
Answer: Its ECAM protein expression is 20.87%.

Question: And the NCAM protein expression ([1]; 2-DAY activin A 100 ng/ml)?
Answer: The NCAM protein expression was 5.04%.

Question: What about the SSEA-3 protein expression ([1]; 2-DAY activin A 100 ng/ml) of the same substance?
Answer: The SSEA-3 protein expression was 92.14%.

Question: What about the CD9 protein expression ([1]; 5-DAY activin A 100 ng/ml) of the same substance?
Answer: The CD9 protein expression was 7.27%.

Question: What about the CXCR4 protein expression ([1]; 5-DAY activin A 100 ng/ml) of the same substance?
Answer: The CXCR4 protein expression was 55.26%.

Question: What about the ECAM protein expression ([1]; 5-DAY activin A 100 ng/ml) of the same substance?
Answer: The ECAM protein expression was 14.17%.

Question: And the NCAM protein expression ([1]; 5-DAY activin A 100 ng/ml)?
Answer: The NCAM protein expression was 21.1%.

Question: What about the SSEA-3 protein expression ([1]; 5-DAY activin A 100 ng/ml) of the same substance?
Answer: The SSEA-3 protein expression was 42.9%.

Question: What about the CD9 protein expression ([1]; 8-DAY activin A 100 ng/ml) of the same substance?
Answer: The CD9 protein expression was 4.1%.

Question: And the CXCR4 protein expression ([1]; 8-DAY activin A 100 ng/ml)?
Answer: Its CXCR4 protein expression is 56.92%.

Question: What about the ECAM protein expression ([1]; 8-DAY activin A 100 ng/ml) of the same substance?
Answer: Its ECAM protein expression is 1.02%.

Question: What about the NCAM protein expression ([1]; 8-DAY activin A 100 ng/ml) of the same substance?
Answer: Its NCAM protein expression is 8.86%.

Question: And the SSEA-3 protein expression ([1]; 8-DAY activin A 100 ng/ml)?
Answer: The SSEA-3 protein expression was 22.05%.

Question: What about the “CXCR4 protein by FACS analysis” value ([1]; following activin A treatment) of the same substance?
Answer: The value was “increase”.

Question: And the “CXCR4+” value [2]?
Answer: The value was 92.78%.

Question: What about the “CXCR4+/C-kit+” value [2] of the same substance?
Answer: Its value is 92.90%.

Question: And the “CXCR4+/CD9+” value [2]?
Answer: The value was 7.03%.

Question: What about the “CXCR4+/CD99+” value [2] of the same substance?
Answer: Its value is 88.78%.

Question: And the “CXCR4+/EPCAM” value [2]?
Answer: The value was 87.99%.

Question: And the “cells positive for Sox17 and HNF-3beta (immunocytochemistry)” value [3]?
Answer: Its value is 30-40%.

Question: What about the “differentiated cells still Oct4 positive (immunocytochemistry)” value [3] of the same substance?
Answer: The value was roughly 100%.

Question: And the “expression of Ngn3 or insulin” value [4]?
Answer: The value was “did not induce”.

Question: What about the “increase of Nkx2.2 expression compared to samples without activin A” value ([5]; 50 ng/ml activin A with 50 ng/ml basic FGF and 1 μM Retinoic Acid) of the same substance?
Answer: The value was “about 35 fold”.

Question: What about the Pdx1 expression ([5]; activin A for the first three days of culture) of the same substance?
Answer: Its Pdx1 expression is “maintained Pdx1 expression at a level similar to samples containing no activin A”.

Question: Which results are given for Wnt-3a?
Answer: expression of CXCR4 (CD184) by FACS ([6]; 20 ng/ml Wnt-3a in DE cultures, day 5, H7P44 and H9P46): robust expression; expression of definitive endoderm markers (real-time PCR) ([6]; low serum+AA+/-Wnt ligands, H7 and H9, five days): significant up regulation; number of CXCR4 positive cells ([7]; 10-50 ng/ml Wnt-3a, day 5): significantly increased; Wnt3a dose sufficient to reach optimal cell expansion and definitive endoderm differentiation ([7]; for 2 days, H9p52 on 1:30 low growth factor MATRIGEL): 10 ng/mL; nuclei stained positive for SOX-17, HNF-3beta, and GATA-4 (H9 cells; 20 ng/ml Wnt-3a, Day 5 DE cultures): significantly larger number; expression of N-cadherin (H9 cells; addition of Wnt-3a): enhanced expression; expression of e-cadherin (H9 cells; addition of Wnt-3a): significant loss of expression; expression of definitive endoderm markers [8]: Robust expression
